{"source": "patent US20240316008A1", "about": "“TREATMENT OF SYSTEMIC IMMUNE ACTIVATION SYNDROMES” (TRANQUIS THERAPEUTICS, INC., priority 2020, published 2024)", "key": {"PGC-1α": {"system": "PGC-1α", "assay": "PGC-1α protein expression in BV2 microglia cells (Western blot)", "type": "cell-based, murine", "conditions": "24 hours", "procedure": "Frozen BV2 murine microglia cells were thawed and propagated in complete media (RPMI, 10% heat-inactivated FBS, 1% L-glutamine, 1% Pen-Strep) until the growth rate reached log phase. For protein expression analysis, DMSO (1:1000 final dilution) or TQS-168 in DMSO (1:1000 final dilution) at 20 μM was added to cell cultures. After 24 hours stimulation, supernatant was discarded and cell lysis buffer (Cell Signal) was added to adherent cells to extract protein. Total protein was quantified and normalized across all samples by BCA assays. Two replicates of untreated cultures and three replicates of TQS-168-treated cultures were investigated, with each replicate containing lysates from 5,000,000 BV2 myeloid cells. PGC1α expression was detected by Western Blot using an anti-PGC-1α antibody (SC13067, Santa Cruz Biotechnology, 1:500 dilution). Anti-β-actin antibody (SC8432, Santa Cruz Biotechnology, 1:2000 dilution) was used to quantify beta-actin, a housekeeping gene whose expression level is not know to be affected by TQS-168. […] Total protein was quantified and normalized across all samples by BCA assays. PGC-1α was subsequently detected by Western Blot using an anti-PGC-1α antibody (SC13067, Santa Cruz Biotechnology, 1:500 dilution). β-actin was detected with an anti-β-actin antibody (SC8432, Santa Cruz Biotechnology, 1:2000 dilution). […]"}, "TNFα": {"system": "TNFα", "assay": "TNFα secretion from LPS-stimulated BV2 cells (CBA assay)", "type": "cell-based, murine", "conditions": "100 ng/ml LPS, 24 hours; for TNFα production by LPS-stimulated BV-2 myeloid cells: compared to control", "procedure": "LPS was used to induce cytokine secretion from BV-2 cells. Cells were incubated with TQS-168 at various concentrations to assess whether TQS-168 could suppress the LPS-promoted release of various cytokines from in vitro cell cultures. Cytokine secretion was measured by cytometric bead array (CBA) fluorescence-activated cell sorting (FACS).\nBriefly, a vial of BV2 frozen stock (1 million cells per ml in complete medium) was thawed into 10 mL of complete medium per vial for a total of 4 vials. The vials were then centrifuged at 1800 rpm for 3 minutes to wash away freezing media. The four vials were then pooled into 25 mL of complete medium. TQS-168 was prepared in DMSO.\nCells were incubated for 24 hours in the presence of medium (negative control), LPS (positive control), DMSO+LPS (positive control, controlling additionally for presence of DMSO in the TQS-168 stock solution), or LPS+TQS-168 at final concentrations of 1 μM, 5 μM, 10 μM, and 20 μM.\nAfter the well plates were incubated overnight for 24 hours, they were centrifuged at 1800 rpm for 5 minutes. Next, 150 μl from each well was transferred to a new set of plates, of which 50 μl was used for CBA. The plates were then centrifuged with the cells, followed by addition of 100 μl of DAPI (50 ml of PBS+10 μl of DAPI stock at 1:5000 dilution). The plates were then incubated in the dark for 5 minutes, followed by addition of 100 μl of PBS and centrifuged at 1800 rpm for 5 minutes. Finally, the plates were resuspended in 200 μl of PBS and tested.\nMultiplexed cytometric bead array (CBA) assay was performed according to standard techniques to detect presence in the cell culture medium of secreted murine TNFα, IL-6, IFNγ, IL-12, monocyte chemoattractant protein 1 (MCP-1), and IL-10.\nA total of 4-11 replicates of BV2 cultures in different conditions were investigated. Frozen BV2 microglia cell line was thawed and propagated in complete media (RPMI, 10% heat inactivated FBS, 1% L-glutamine, 1% Pen-Strep) until growth rate reached log phase.\nCells were stimulated with 100 ng/ml of LPS for 24 hours. […]"}, "IL-6": {"system": "IL-6", "assay": "IL-6 secretion from LPS-stimulated BV2 cells (CBA assay)", "type": "cell-based, murine", "conditions": "100 ng/ml LPS, 1 μM-20 μM, 24 hours", "procedure": "LPS was used to induce cytokine secretion from BV-2 cells. Cells were incubated with TQS-168 at various concentrations to assess whether TQS-168 could suppress the LPS-promoted release of various cytokines from in vitro cell cultures. Cytokine secretion was measured by cytometric bead array (CBA) fluorescence-activated cell sorting (FACS). Briefly, a vial of BV2 frozen stock (1 million cells per ml in complete medium) was thawed into 10 mL of complete medium per vial for a total of 4 vials. The vials were then centrifuged at 1800 rpm for 3 minutes to wash away freezing media. The four vials were then pooled into 25 mL of complete medium. TQS-168 was prepared in DMSO. Cells were incubated for 24 hours in the presence of medium (negative control), LPS (positive control), DMSO+LPS (positive control, controlling additionally for presence of DMSO in the TQS-168 stock solution), or LPS+TQS-168 at final concentrations of 1 μM, 5 μM, 10 μM, and 20 μM. After the well plates were incubated overnight for 24 hours, they were centrifuged at 1800 rpm for 5 minutes. Next, 150 μl from each well was transferred to a new set of plates, of which 50 μl was used for CBA. The plates were then centrifuged with the cells, followed by addition of 100 μl of DAPI (50 ml of PBS+10 μl of DAPI stock at 1:5000 dilution). […]"}, "[1]": {"system": "12 human primary cell-based systems", "assay": "Eurofins BioMAP Diversity PLUS panel"}, "[2]": {"conditions": "BioMAP report, profile at 6.7 μM, 2.2 μM, 740 nM"}, "[3]": {"conditions": "profile at 6.7 μM, 2.2 μM, 740 nM"}, "[4]": {"conditions": "profile at 20 μM, 6.7 μM, 2.2 μM, 740 nM"}}, "data": [{"smiles": "CC(C)(C)c1ccc(-c2nc3ccccc3[nH]2)cc1", "note": "[TQS-168, 2-(4-tert-butylphenyl)-1H-benzimidazole]", "values": [{"measurement": "PGC-1α protein expression", "setting": "PGC-1α; BV2 cells, concentrations ranging from 0.7 μM to 20 μM", "value": "induces"}, {"measurement": "PGC-1α protein expression", "setting": "PGC-1α; BV2 microglia cells, 20 μM, Western blot", "value": "induces"}, {"measurement": "TNFα production by LPS-stimulated BV-2 myeloid cells", "setting": "TNFα; 5 μM", "value": "suppress"}, {"measurement": "TNFα production by LPS-stimulated BV-2 myeloid cells", "setting": "TNFα; 20 μM", "value": "suppress"}, {"measurement": "LPS-induced secretion of TNFα", "setting": "TNFα; BV2 cells, 1 μM-20 μM", "value": "reduce"}, {"measurement": "LPS-induced secretion of IL-6", "setting": "IL-6", "value": "reduce"}, {"measurement": "decrease in sIgG, sIL-17F, sTNFα from B and T cells", "setting": "[1]; 6.7 μM", "value": "greatest decrease"}, {"measurement": "cytotoxicity to endothelial cells", "setting": "[1]; 20 μM", "value": "cytotoxic"}, {"measurement": "highest nontoxic concentration tested", "setting": "[1]; BioMAP Diversity PLUS panel", "value": 6.7, "unit": "µM"}, {"measurement": "tissue remodeling activity MMP-1", "setting": "[1]; [2]", "value": "increased"}, {"measurement": "tissue remodeling activity αSMA", "setting": "[1]; [2]", "value": "decreased"}, {"measurement": "activity at non-cytotoxic concentrations", "setting": "[1]; [3]", "value": "active"}, {"measurement": "immune markers sIgG, sIL-17-F, sTNFα (from B and T cells, not monocytes)", "setting": "[1]; [3]", "value": "decreased"}, {"measurement": "inflammatory markers sPGE2 (from monocytes), IL-8", "setting": "[1]; [3]", "value": "decreased"}, {"measurement": "proliferation of endothelial cells, T cells, B cells & fibroblasts", "setting": "[1]; [3]", "value": "anti-proliferative"}, {"measurement": "sIL-6", "setting": "[1]; [3]", "value": "increased"}, {"measurement": "tissue remodeling markers MMP1, alpha-SMA", "setting": "[1]; [3]", "value": "modulated"}, {"measurement": "VCAM-1", "setting": "[1]; [4]", "value": "increased"}, {"measurement": "immune markers sIgG, sIL-17A, sIL-17F, sIL-2, sTNFα, sIL-6 (from B and T cells, not monocytes)", "setting": "[1]; [4]", "value": "decreased"}]}]}
